Measurements reported in PMC8648660, “Multifunctional thiosemicarbazones targeting sigma receptors: in vitro and in vivo antitumor activities in pancreatic cancer models” (Cellular Oncology, 2021).
Where “and” joins values, the source holds several entries; their conditions need not be identical. Equal values may be shown once. Entries after “also recorded” stand apart in the source; their conditions may differ.

Tests used:
sigma-2 receptors [1] = target: T1, sigma-2 receptors (Homo sapiens, UniProt Q5BJF2); test: Flow cytometry displacement of sigma-2 fluorescent ligand NO1 in human pancreatic cancer cells; assay type: binding
T1 construct: endogenous in cells; host or cells: MiaPaCa2, PANC-1, AsPC1 (whole cells)
T1 sequence (Q5BJF2 whole entry): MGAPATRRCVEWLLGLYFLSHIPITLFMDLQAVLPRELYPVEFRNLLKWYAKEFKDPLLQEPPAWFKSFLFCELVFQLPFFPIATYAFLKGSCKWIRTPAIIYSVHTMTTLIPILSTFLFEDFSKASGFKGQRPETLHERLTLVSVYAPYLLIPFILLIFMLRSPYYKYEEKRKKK
Procedure: (§1) Flow cytometry studies to detect receptor densities and ligand binding affinities were carried out according to Abate et al. and Niso et al., for the sigma-1 and sigma-2 receptors, respectively. […] At the end of the incubation periods, the cells were washed twice with PBS, detached with […] Cell Dissociation Solution (Sigma Chemical Co.) for 10 min at 37 °C, centrifuged at 13,000 g for 5 min and resuspended in 500 µl PBS. Fluorescence was recorded using a Bio-Guava® easyCyte™ 5 Flow Cytometry System (Millipore, Billerica, MA, USA) equipped with a 530 nm band pass filter. For each analysis, 50,000 events were collected and analyzed using InCyte software (Millipore).

sigma-2 receptors [2] = target: T2, sigma-2 receptors (Mus musculus, UniProt Q8VD00); test: Flow cytometry displacement of sigma-2 fluorescent ligand NO1 in murine KP02 cells; assay type: binding
T2 construct: endogenous in cells; host or cells: KP02 (murine pancreatic cancer cells)
T2 sequence (Q8VD00 whole entry): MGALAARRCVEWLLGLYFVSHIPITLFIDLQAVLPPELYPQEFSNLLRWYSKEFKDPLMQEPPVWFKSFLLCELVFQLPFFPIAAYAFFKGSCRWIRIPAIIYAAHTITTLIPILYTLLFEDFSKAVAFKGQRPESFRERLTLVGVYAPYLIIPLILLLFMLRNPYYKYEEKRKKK
Procedure: as §1

AspC1 cells = test: Cell viability MTT assay 48 h; assay type: cell-based; settings: Homo sapiens, MTT 48 h, read-out: Activity EC50 ± SEM, AspC1
Procedure: (§2) Cell viability was assessed using a MTT assay at 48 h. On day 1, 25,000 cells/well were seeded into 96-well plates in 100 µl culture medium. On day 2, drugs at concentrations ranging from 1 µM to 100 µM were added. In all experiments the drug-solvents (EtOH, DMSO) were added as controls to evaluate possible solvent cyto-toxicities. After the established incubation time with drugs (48 h), MTT (0.5 mg/ml) was added to each well, and after 3–4 h incubation at 37 °C, the supernatants were removed. The formazan crystals formed were solubilized using 100 µl DMSO/EtOH (1:1) after which the absorbance values at 570 and 630 nm were determined using a microplate reader Victor 3 from PerkinElmer Life Sciences.

BxPC3 cells = test: Cell viability MTT assay 48 h; assay type: cell-based; settings: Homo sapiens, BXPC-3; MTT 48 h; read-out: Activity EC50 ± SEM, BxPC3
Procedure: as §2

HPDE cells = test: Cell viability MTT assay 48 h; assay type: cell-based; settings: Homo sapiens, MTT 48 h, read-out: Activity EC50 ± SEM, HPDE (normal cells)
Procedure: as §2

KP02 cells = test: Cell viability MTT assay 48 h; assay type: cell-based; settings: Mus musculus; MTT 48 h; read-out: Activity EC50 ± SEM, KP02
Procedure: as §2

MiaPaCa2 cells = test: Cell viability MTT assay 48 h; assay type: cell-based; settings: Homo sapiens, MIA PaCa-2; MTT 48 h; read-out: Activity EC50 ± SEM, MiaPaCa2
Procedure: as §2

PANC-1 cells = test: Cell viability MTT assay 48 h; assay type: cell-based; settings: Homo sapiens
Procedure: as §2

PANC02 cells = test: Cell viability MTT assay 48 h; assay type: cell-based, murine; settings: Mus musculus, MTT 48 h, read-out: Activity EC50 ± SEM, PANC02
Procedure: as §2

caspase 3 = test: Caspase 3 activity assay in pancreatic cancer cells; assay type: cell-based, human and murine; settings: 2 h
Procedure: Caspase 3, caspase 7 and caspase 9 activation was measured using a Caspase 3/7 Fluorescence Assay kit (Cayman Chemical, Ann Arbor, MI, USA) and a Caspase 9 fluorometric assay kit (Enzo Life Science, Roma, Italy). The results are expressed as nmol of the hydrolyzed substrate of each caspase/mg cellular proteins, according to a previously set titration curve.

PANC-1 xenografts = test: In vivo xenograft assay, PANC-1; design: species or system mice; settings: for tumor growth / intratumor apoptosis (cleaved caspase 3) and lipid peroxidation: 30 days
Procedure: 2 × 10^5 PANC-1 or Mia-PaCa2 cells were inoculated subcutaneously in the right flank of 6-week old C57BL/6 female nude mice (Charles River Laboratories Italia, Calco), housed (5 per cage) under a 12 h light/dark cycle, with food and drinking water provided ad libitum. Tumor growth was measured daily by caliper, according to the equation (LxW^2)/2, where L = tumor length and W = tumor width. When tumors reached a volume of 100 mm^3, the mice (n = 8/group) were randomized in the following groups and treated daily for 15 days or 30 days intraperitoneally as reported: (1) Vehicle group (100 µl saline solution), (2) FA4^low group (750 nmol FA4 in 100 µl saline solution), (3) FA4^high group (1500 nmol FA4 in 100 µl saline solution) and (4) Gemcitabine group (20 mg/kg gemcitabine, twice a week). Tumor volumes and animal weights were monitored daily. Animals were euthanized at day 18 or 36 after randomization with zolazepam (0.2 ml/kg) and xylazine (16 mg/kg). Next, tumors were excised and paraffin-embedded. Sections were immuno-stained for cleaved caspase 3 (Cell Signalling Technology, Danvers, MA, USA) or with an anti-malondialdehyde antibody (Abcam), followed by a peroxidase-conjugated secondary antibody (Dako, Glostrup, Denmark). The sections were examined under a Leica DC100 microscope (Leica, Wetzlar, Germany). Quantification of the immunohistochemical analyses was performed using ImageJ software (https://imagej.nih.gov/). The staining intensities were expressed as arbitrary units and considered 1 in the vehicle group.

MiaPaCa2 xenografts = test: In vivo xenograft assay, MiaPaCa2; design: species or system mice; settings: FA4 750 and 1500 nmol i.p. daily, 15 days
Procedure: 2 × 10^5 PANC-1 or Mia-PaCa2 cells were inoculated subcutaneously in the right flank of 6-week old C57BL/6 female nude mice (Charles River Laboratories Italia, Calco), housed (5 per cage) under a 12 h light/dark cycle, with food and drinking water provided ad libitum. Tumor growth was measured daily by caliper, according to the equation (LxW^2)/2, where L = tumor length and W = tumor width. When tumors reached a volume of 100 mm^3, the mice (n = 8/group) were randomized in the following groups and treated daily for 15 days or 30 days intraperitoneally as reported: (1) Vehicle group (100 µl saline solution), (2) FA4^low group (750 nmol FA4 in 100 µl saline solution), (3) FA4^high group (1500 nmol FA4 in 100 µl saline solution) and (4) Gemcitabine group (20 mg/kg gemcitabine, twice a week). Tumor volumes and animal weights were monitored daily. Animals were euthanized at day 18 or 36 after randomization with zolazepam (0.2 ml/kg) and xylazine (16 mg/kg). Next, tumors were excised and paraffin-embedded. […] Quantification of the immunohistochemical analyses was performed using ImageJ software (https://imagej.nih.gov/). The staining intensities were expressed as arbitrary units and considered 1 in the vehicle group.

[3] = mouse, in vivo
Procedure: 2 × 10^5 PANC-1 or Mia-PaCa2 cells were inoculated subcutaneously in the right flank of 6-week old C57BL/6 female nude mice (Charles River Laboratories Italia, Calco), housed (5 per cage) under a 12 h light/dark cycle, with food and drinking water provided ad libitum. Tumor growth was measured daily by caliper, according to the equation (LxW^2)/2, where L = tumor length and W = tumor width. […] Tumor volumes and animal weights were monitored daily. Animals were euthanized at day 18 or 36 after randomization with zolazepam (0.2 ml/kg) and xylazine (16 mg/kg). […] Red blood cell (RBC) count, hemoglobin (Hb), white blood cell (WBC) count, platelet (PLT) count, lactate dehydrogenase (LDH), aspartate aminotransferase (AST), alanine aminotransferase (ALT), alkaline phosphatase (AP), creatinine and creatine phosphokinase (CPK) were measured in blood samples collected immediately after euthanasia, using commercially available kits from Beckman Coulter Inc (Beckman Coulter, Miami, FL, USA).
Blood was collected immediately after euthanasia and analyzed for red blood cells (RBC) count, hemoglobin (Hb), white blood cells (WBC) count, platelets (PLT) count, lactate dehydrogenase (LDH), aspartate aminotransferase (AST), alanine aminotransferase (ALT), alkaline phosphatase (AP), creatinine, creatine phosphokinase (CPK). Data are presented as means ± SD.

In the case of `CN(C)C(=S)N/N=C1\C(=O)N(CCCCN2CCC3(CC2)OCc2ccccc23)c2ccccc21` [FA4, (Z)-2-(1-(4-(3 H-spiro[isobenzofuran-1,4’-piperidine]-1’-yl)butyl)-2-oxoindolin-3-ylidene)-N,N-dimethylhydrazinecarbothioamide], the IC50 (sigma-2 receptors [1]; Flow Cytometry, IC50 ± SEM, Sigma-2, AspC1, AspC1 cells, displacement of NO1) is reported as 10.6 ± 2.2 nM, the IC50 (sigma-2 receptors [1]; Flow Cytometry, IC50 ± SEM, Sigma-2, MiaPaCa2, MiaPaCa2 cells, displacement of NO1) is reported as 9.13 ± 1.1 nM and the IC50 (sigma-2 receptors [1]; Flow Cytometry, IC50 ± SEM, Sigma-2, PANC-1, PANC-1 cells, displacement of NO1) is reported as 11.4 ± 2.3 nM. For the same molecule, the IC50 (sigma-2 receptors [1]; IC50 at sigma-2 receptors by flow cytometry, across MiaPaCa2, PANC-1, Aspc1 and (murine) KP02 cells) was 9.13 to 11.6 nM and ~10 nM, the IC50 (sigma-2 receptors [2]) was 11.6 ± 1.5 nM and the EC50 (AspC1 cells) was 1390 ± 300 nM. The EC50 (BxPC3 cells) was 1360 ± 200 nM, the EC50 (HPDE cells) was 6110 ± 1100 nM and the EC50 (KP02 cells) was 880 ± 100 nM. It also gave an EC50 (MiaPaCa2 cells) of 1980 ± 400 nM, an EC50 (PANC-1 cells; MTT 48 h, read-out: Activity EC50 ± SEM, PANC-1) of 3010 ± 800 nM and an IC50 (PANC-1 cells; read-out: IC50 in PANC1 cells (discussion)) of 3010 nM. For the same molecule, the EC50 (PANC02 cells) was 1940 ± 500 nM, the “caspase 3 activation” value (caspase 3; 50 µM, MiaPaCa2, PANC-1, AspC1, KP02, PANC02 cells) was “activated caspase 3 in all the cell lines investigated; also recorded: most potent inducer of caspase 3 in all cell lines tested” and the “induction of caspases 3, 7, 9 at IC50 concentration” value (caspase 3; concentration corresponding to IC50 in each cell line) was “significant inducer of caspases in all the cell lines analyzed, except for MiaPaCa2”. For the same molecule, the “tumor volume vs vehicle” value (PANC-1 xenografts; FA4 750 nmol (low) and 1500 nmol (high) i.p. daily, 15 days) was “tumors were significantly smaller”, the tumor growth (PANC-1 xenografts; FA4 high dosage 1500 nmol i.p. daily) was “regression of tumor growth” and the “intratumor apoptosis (cleaved caspase 3) and lipid peroxidation” value (PANC-1 xenografts; FA4 high dosage) was “became more pronounced”. The tumor growth (PANC-1 xenografts; FA4 low dosage 750 nmol i.p. daily) was “cytostatic effect”, the “intratumor apoptosis (cleaved caspase 3) and lipid peroxidation” value (PANC-1 xenografts; FA4 low dosage) was “low or undetectable” and the tumor growth (MiaPaCa2 xenografts) was “ineffective at both dosages”. For the same molecule, the “blood cell counts and hemato-chemical parameters vs control” value [3] was “no significant differences”.
